# Patent US4769389A, “Oxygenated-alkyl derivatives of glutamic and aspartic acids with antagonistic activity to bio-active polypeptides and a method for their preparation” (priority 1985, dated 1988)
# Like-named read-outs stand apart in the source and are kept apart here.
# Key:
# [1] = test system: guinea-pig gallbladder; experiment: Anti-CCK activity on guinea-pig gallbladders in vitro (contraction by CCK-8); details: Cavia porcellus; CCK-8 10 ng/ml; in vitro
# Procedure: ANTI-CCK ACTIVITY ON GUINEA-PIG GALLBLADDERS IN VITRO A longitudinal strip of guinea-pig gallbladder is placed in a bath for isolated organs in Krebs at a temperature of 32° C. and oxygenated continuously with an oxygen-CO2 mixture (95-[…]). The isometric contractions were detected by means of a force transducer and recorded. […] The results obtained are shown in Table 3 which gives the compounds tested and the IC50 values found which were calculated by the method of regression in a test of at least three experiments for each compound studied.
# [2] = test system: guinea pig gall bladders; experiment: Anti-CCK-8 activity on guinea-pig gallbladders in situ (in vivo); details: Cavia porcellus, iv; CCK-8 10 ng/kg i.v.; compound i.v.; read-out: ID50, anti-CCK-8 activity in situ
# Procedure: In order to confirm the evidence of the studies in vitro, several of the more interesting compounds were tested in vivo with the use of guinea-pig gallbladders in situ.
# The method used was that described by Ljungberg (Svensk. Farm. Tidskr. 69, 351-354, 1964).
# Guinea-pigs having a weight of about 400 g anaesthetised with urethane were used; the substances being tested were administered intravenously (i.v.) into the jugular vein.
# The responses of the gallbladder to the substances being tested were detected by means of a force transducer and recorded by means of a microdynamometer. 10 ng/kg of CCK 8 were chosen as the optimum contracting dose. The antagonistic compounds tested were administered in increasing doses so as to enable the calculation of an ID50 value, that is the dose (in mg/kg i.v.) having a 50% inhibiting effect against contractions induced by 10 ng/kg i.v. of CCK-8.
# [3] = test system: digestive tract; experiment: Antispastic activity, vegetable carbon test (speed of transit through stomach and intestine) in mice; assay type: in vivo; details: Mus musculus, ip, read-out: A[…] ED50 (dose which reduces the intestinal transit time of the carbon by 50%), intraperitoneally
# From the text: The anti-spastic activity which the present compounds exert on the whole of the digestive tract is also considerable. Measured in mice with the vegetable carbon test (speed of transit through the stomach and intestine) this activity is illustrated in the following table: […]
# [4] = test system: colon of rabbits; experiment: Antispastic activity in the colon of rabbits stimulated with CCK-8; assay type: in vivo, rabbit; set-up: Antispastic activity in colon, EXPERIMENT 1 / Antispastic activity in colon, EXPERIMENT 2: unit not given here; details: CCK 100 ng/kg
# Procedure: The abdomen of anaesthetised rabbit is cut open to display the tranverse colon. A small balloon full of water is inserted at an established point and connected to a pressure transducer by means of a polyethylene cannula filled with H2 O.
# The optimum sensitivity being fixed in relation to the physiological contractions, the products were administered through the femeral vein. Contractions were induced by the administration of 100 ng/kg of CCK.
# [5] = test system: pancreatitis in mice induced experimentally by cerulein; experiment: Pancreatitis induced by cerulein in mice; assay type: in vivo; details: for ED50: Mus musculus, ip, cerulein, mice
# Procedure: Adult male mice received six injections of cerulein (Takus) (50 mcg/kg) each hour for six hours.
# The compound was administered 30 minutes before each administration of cerulein. Nine hours after the beginning of the treatment, the blood was taken from the rectro-orbitory plexus after anaesthesia with ether, the animals were killed and the pancreas removed and weighed.
# [6] = test system: pancreatitis in rats induced experimentally by taurocholate; experiment: Pancreatitis induced by sodium taurocolate in rats; assay type: in vivo; details: for ED50: Rattus norvegicus, ip, taurocholate, rats
# Procedure: The products under examination were administered intraperitoneally (i.p.) 30 minutes before the operation and 3 hours after the operation. Six hours after the laparatomy the blood was removed from the retro-orbitory plexus after anaesthesia with ether, the animals were killed and the pancreas was removed and weighed. The activity of the serum amylase was determined by the method described above.
# [7] = Food consumption in rats treated daily by mouth for three weeks; assay type: in vivo
# Procedure: (§1) The following tables give the average values of the food consumption and the average weight of each group of animals calculated weekly as well as the Student t value calculated between the various groups treated and the group of control animals. […] Each group received the drug (compound 1) in the doses indicated for three weeks daily by mouth. The drug in the form of the sodium salt was dissolved in water and administered in a volume of 10 ml of H2 O/kg while the control group received an equal volume of the solvent alone.
# [8] = Body weight of rats treated daily by mouth for three weeks; assay type: in vivo
# Procedure: as §1
# [9] = test system: normal pancreatic cells; experiment: Action on growth rate of normal pancreas induced by CCK-8 in hamsters; assay type: in vivo
# From the text: (§2) Male hamsters were innoculated in the cheek pouch with a suspension of 1×10^5 tumour cells of a pancreatic adenocarcinoma.
# (§3) Fifteen days after this treatment the animals were killed and the normal pancreas and the pancreatic tumours initiated in the cheek pouch were removed and weighed.
# (§4) The DNA was extracted and measured by conventional methods.
# (§5) The results obtained are given in Table 11 in which they are expressed as average values±S.E.
# [10] = test system: pancreatic adenocarcinoma; experiment: Inhibiting action on rate of growth of a pancreatic adenocarcinoma induced by CCK-8 in hamsters; assay type: in vivo
# From the text: as §2, §3, §4, §5
# [11] = in vivo, sc
# [12] = Tolerability in parenteral administration; details: i.v. sodium salt in water up to 1.5 percent, 10 ml/kg (150 mg/kg)
# [13] = compound 1 4 mg/kg + CCK-8 8 mcg/kg
smiles,measurement,setting,value
CCCCCN(CCCOC)C(=O)C(CCC(=O)O)NC(=O)c1ccc(Cl)c(Cl)c1 (racemic) [Compound 1],IC50,[1],0.1 mg/L
same,ED50,[2],0.11 mg/kg
same,ED50,[3],12.8 mg/kg
same,"Antispastic activity in colon, EXPERIMENT 1",[4]; 0.3 mg/kg i.v.,-20.8
same,"Antispastic activity in colon, EXPERIMENT 2",[4]; 0.3 mg/kg i.v.,-34.1
same,"Antispastic activity in colon, EXPERIMENT 1",[4]; 1 mg/kg i.v.,-48.9
same,"Antispastic activity in colon, EXPERIMENT 2",[4]; 1 mg/kg i.v.,-55.6
same,"Antispastic activity in colon, EXPERIMENT 1",[4]; 3 mg/kg i.v.,-100.0
same,"Antispastic activity in colon, EXPERIMENT 2",[4]; 3 mg/kg i.v.,-87.8
same,ED50,"[4]; Oryctolagus cuniculus, iv",1.24 mg/kg
same,AMYLASE IN THE SERUM,[5]; 5 mg/kg ip + cerulein,29.4 U/ml
same,INHIBITION OF WEIGHT INCREASE,[5]; 5 mg/kg ip + cerulein,76.9%
same,INHIBITION OF WEIGHT INCREASE (pancreas),[5]; 5 mg/kg ip + cerulein,42.8%
same,AMYLASE IN THE SERUM,[5]; 7.5 mg/kg ip + cerulein,25.6 U/ml
same,INHIBITION OF WEIGHT INCREASE,[5]; 7.5 mg/kg ip + cerulein,81.6%
same,INHIBITION OF WEIGHT INCREASE (pancreas),[5]; 7.5 mg/kg ip + cerulein,71.4%
same,AMYLASE IN THE SERUM,[5]; 10 mg/kg ip + cerulein,13.2 U/ml
same,INHIBITION OF WEIGHT INCREASE,[5]; 10 mg/kg ip + cerulein,97.1%
same,INHIBITION OF WEIGHT INCREASE (pancreas),[5]; 10 mg/kg ip + cerulein,90.5%
same,ED50,[5]; read-out: ED50 (inhibition of weight increase),4.2 mg/kg
same,ED50,"[5]; read-out: ED50, inhibition of weight increase of the pancreas",5.5 mg/kg
same,AMYLASE IN THE SERUM,[6]; 5 mg/kg i.p. + taurocholate,10.4 U/ml
same,INHIBITION OF AMYLASE INCREASE,[6]; 5 mg/kg i.p. + taurocholate,47.0%
same,INHIBITION OF WEIGHT INCREASE,[6]; 5 mg/kg i.p. + taurocholate,46.1%
same,AMYLASE IN THE SERUM,[6]; 10 mg/kg i.p. + taurocholate,9.8 U/ml
same,INHIBITION OF AMYLASE INCREASE,[6]; 10 mg/kg i.p. + taurocholate,64.7%
same,INHIBITION OF WEIGHT INCREASE,[6]; 10 mg/kg i.p. + taurocholate,84.6%
same,AMYLASE IN THE SERUM,[6]; 20 mg/kg i.p. + taurocholate,7.8 U/ml
same,INHIBITION OF AMYLASE INCREASE,[6]; 20 mg/kg i.p. + taurocholate,123.5%
same,INHIBITION OF WEIGHT INCREASE,[6]; 20 mg/kg i.p. + taurocholate,107.7%
same,ED50,"[6]; read-out: ED50, inhibition of amylase increase",7.3 mg/kg
same,ED50,"[6]; read-out: ED50, inhibition of weight increase",6.9 mg/kg
same,increase in the food consumption compared with the controls,[7]; 0.625 mg/kg daily,about 20%
same,Food consumption,"[7]; 0.625 mg/kg os, 1st week",187.1 ± 6.3 g/week
same,Food consumption,"[7]; 0.625 mg/kg os, 2nd week",220 ± 3.9 g/week
same,Food consumption,"[7]; 0.625 mg/kg os, 3rd week",242.5 ± 3.3 g/week
same,Food consumption,"[7]; 1.25 mg/kg os, 1st week",205 ± 4.6 g/week
same,Food consumption,"[7]; 1.25 mg/kg os, 2nd week",217.5 ± 3.8 g/week
same,Food consumption,"[7]; 1.25 mg/kg os, 3rd week",253.5 ± 2.4 g/week
same,Food consumption,"[7]; 2.5 mg/kg os, 1st week",209.2 ± 3.3 g/week
same,Food consumption,"[7]; 2.5 mg/kg os, 2nd week",222.2 ± 2.6 g/week
same,Food consumption,"[7]; 2.5 mg/kg os, 3rd week",270.7 ± 4.5 g/week
same,increase in the food consumption compared with the controls,"[7]; other doses tested (1.25, 2.5 mg/kg)",about 30%
same,body weight,"[8]; 0.625 mg/kg os, 1st week",216.9 ± 3.8 g
same,body weight,"[8]; 0.625 mg/kg os, 2nd week",267.5 ± 3.9 g
same,body weight,"[8]; 0.625 mg/kg os, 3rd week",324 ± 3.6 g
same,body weight,"[8]; 0.625 mg/kg os, time 0",169.3 ± 1.9 g
same,body weight,"[8]; 1.25 mg/kg os, 1st week",242.7 ± 4.9 g
same,body weight,"[8]; 1.25 mg/kg os, 2nd week",318.3 ± 4.4 g
same,body weight,"[8]; 1.25 mg/kg os, 3rd week",371 ± 5.6 g
same,body weight,"[8]; 1.25 mg/kg os, time 0",168.3 ± 1.1 g
same,body weight,"[8]; 2.5 mg/kg os, 1st week",241.6 ± 3.7 g
same,body weight,"[8]; 2.5 mg/kg os, 2nd week",325.2 ± 5.5 g
same,body weight,"[8]; 2.5 mg/kg os, 3rd week",374.9 ± 5.1 g
same,body weight,"[8]; 2.5 mg/kg os, time 0",165.8 ± 1.3 g
same,weight increase compared with control animals,"[8]; all treated groups, from the first week, in words",significantly higher weight increase than the control animals
same,PANCREATIC DNA,[9]; 4 mg/kg i.p. three times a day,0.78 ± 0.03 mg
same,WEIGHT OF THE PANCREAS,[9]; 4 mg/kg i.p. three times a day,351.2 ± 17.2 mg
same,PANCREATIC DNA,[9]; [13],0.83 ± 0.06 mg
same,WEIGHT OF THE PANCREAS,[9]; [13],370.2 ± 12.7 mg
same,effect on normal pancreatic cells,[9]; in words,atagonises both these actions of CCK-8 to a highly significant extent
same,TUMORAL DNA,[10]; 4 mg/kg i.p. three times a day,0.42
same,WEIGHT OF THE PANCREATIC CARCINOMA,[10]; 4 mg/kg i.p. three times a day,105.0 ± 4.1 mg
same,TUMORAL DNA,[10]; [13],0.44
same,WEIGHT OF THE PANCREATIC CARCINOMA,[10]; [13],108.8 ± 5.4 mg
same,effect on growth of a pancreatic adenocarcinoma,[10]; in words,atagonises both these actions of CCK-8 to a highly significant extent
same,tissue damage,[11],does not moreover give rise to tissue damage
same,haemolysis,[12],without causing haemolysis
